These results are taken from patent US12535460B2, “Small molecule detection in normal ionic strength buffers” (ARIZONA BOARD OF REGENTS ON BEHALF OF ARIZONA STATE …, priority 2020, dated 2026).

Assay [1] has as its target T1, GPR55 (Homo sapiens, UniProt Q9Y2T6). As to the kind of experiment: VirD oscillator method, Tocrifluor/GPR55 pair in diluted buffer. The format is binding. From the text: To study the impact of buffer ionic strength on the binding kinetics, the binding results in 1×PBS were compared with results measured in a more diluted buffer solution (40 times diluted 1×PBS) for the same experiments performed with ADRB2-B2 antagonist pair. The solid lines in FIG. 7 show the global fitting of the data with first-order kinetic model. […] Both of the GPCR binding pairs measured involve electrostatic interactions, since the reported binding site of GPR55 is hydrophilic, and ADRB2 is partially hydrophilic. Thus, the affinity measured under normal and diluted PBS are different. […] Due at least in part to the strong ionic screening effect in normal ionic strength buffer, the signal intensity is reduced to about half of the measurement in low ionic strength buffer while the noise remains at a similar level.
Target sequence in this assay (Q9Y2T6 whole entry, species assumed): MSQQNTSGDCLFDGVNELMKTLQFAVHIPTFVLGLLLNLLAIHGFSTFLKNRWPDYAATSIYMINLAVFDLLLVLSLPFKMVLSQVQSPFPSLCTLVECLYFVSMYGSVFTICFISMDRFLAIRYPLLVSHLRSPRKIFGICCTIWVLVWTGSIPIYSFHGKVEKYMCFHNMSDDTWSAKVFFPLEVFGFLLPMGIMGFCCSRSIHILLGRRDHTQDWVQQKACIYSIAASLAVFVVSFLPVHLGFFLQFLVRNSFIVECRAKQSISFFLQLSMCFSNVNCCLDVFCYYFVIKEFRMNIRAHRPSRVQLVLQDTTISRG

Assay [2] deals with empty virion K082 (no GPCR displayed). Kind of assay: CSOD negative control with empty virion K082 modified fiber. The format is binding, HSV-1. From the text: Virions are functionalized to fiber surface via epoxy coupling, and the binding of respective small molecule antagonists B2 antagonist and Tocrifluor are studied in 1×PBS. First, the virions modified fiber tip was dipped into one well filled with 1×PBS buffer to establish a baseline. Subsequently, the fiber tip was switched from the buffer well to a sample well containing ligands to measure the binding or association process. At last, the fiber tip was switched back to the buffer well for dissociation studies. […] Solid lines are global fitting of the data with a first-order kinetic model. […] For both binding pairs, when no ligand is introduced, the baseline level is within the noise level, showing that the oscillation amplitude change was caused by the specific binding between the ligands and their corresponding receptors.

Assay [3] deals with T1, GPR55. As to the kind of experiment: CSOD binding kinetics of a small molecule ligand to virion-displayed GPR55. Further details: made in house; host or cells: recombinant HSV-1 virions (VirD), made by collaborators at Johns Hopkins University. The conditions noted are these: 1×PBS, global fitting with first-order kinetics. The text has this:
An inverted microscope (Olympus IX-70 with 40× objective) with a CCD camera (Pike F-032, Allied Vision) was used for recording 14-bit grayscale image sequences at a frame rate of 106.5. A customized plate with 2 PDMS wells shown in FIGS. 1A and 1B was mounted on a motorized microscope stage (MAC 6000 modular automation controller, Ludl Electronic Products LTD.). Two steel electrodes (1 cm×3 cm) were placed 1 cm apart inside the well, then blocked with agarose electrophoresis gel. A green LED (505 nm, 400 mW, Thorlabs M505L3) light was coupled into the fiber via a focusing lens. Fiber is dipped into analyte solution between the electrophoresis gels. To control the fiber and move the fiber between the 2 wells, the fiber was clamped to a motorized arm (A-LSQ075B, Zaber). A sinusoidal potential was applied with a function generator (33521A, Agilent). A USB data acquisition card (USB-6229, National Instruments) was used to record voltage and current.
The tip (about 1 cm) of an optical fiber thread (about 20 cm) was first soaked in acetone for 1 minute and then rinsed with DI water and dried. The polymer coating layer on the optical fiber was then stripped off with an optical fiber stripper. The bare fiber was etched by soaking it in 47% hydrofluoric acid for 29 minutes and 15 seconds for a diameter of approximately 15 μm. The etched fiber was later rinsed with DI water to wash off the hydrofluoric acid and then blown dry with nitrogen. The tip was cut to about 9 mm long. Before functionalization, the optical fiber was cleaned with oxygen plasma for 3 minutes.
The etched fiber was soaked in (3-glycidyloxypropyl)trimethoxysilane (epoxy) solution (2.5% volume percentage of epoxy in isopropanol) for 1 hour for surface functionalization. The fiber was then rinsed with PBS buffer. […]
By fitting the kinetic curves at different concentrations globally with first-order kinetics, the association rate constant (ka), dissociation rate constant (kd) as well as equilibrium constant (KD) for both binding pairs are calculated.
Target sequence in this assay (Q9Y2T6 whole entry): as the sequence (Q9Y2T6 whole entry, species assumed) above

For orientation: Kd means the concentration at which binding is half-saturated. Take Tocrifluor: at GPR55 [1], the Kd was 160 ± 50 nM. In addition, the “binding to empty virion K082” value in assay [2] was “binds to neither”. Also, on GPR55 [3], the “association rate constant ka” value came out at 9200 M⁻¹ s⁻¹ and the “dissociation rate constant kd” value is 0.00081 s⁻¹. The Kd on GPR55 [3] (read-out: equilibrium constant KD) was 89 nM.
